Legend:
Assay type in all cases: biochemical
Conditions in all cases: 20 nM
PDE4A1A = target: T1, PDE4A1A (Homo sapiens, UniProt P27815); test: PDE4 inhibitory activity assay (FAM-cAMP enzymatic reaction), PDE4A1A
T1 construct: purchased BPS 60040
Method: (§1) The compounds of the present disclosure were tested for their inhibitory activity (IC50 value) against PDE4A1A, PDE4B1, and PDE4D2.
(§2) Positive compound: Trequinsin (Sigma, Cat No. T20S7).
(§3) Instrument: Wallac Victor Muti-lable counter (Pekin Elmer) Steps of assay:
(§4) PDE enzymatic reaction; • 1) PDE was dissolved in 1× reaction solution to prepare 2× enzyme solution; • 2) FAM-cAMP was dissolved in 1× reaction solution to prepare 2× substrate solution; • 3) Corresponding volume of the compound in DMSO was transferred to the reaction plate through Echo 550; • 4) 2× enzyme solution was added into the corresponding wells of the reaction plate and incubated with the compound solution for 15 minutes at room temperature; • 5) 2× substrate solution was added into the corresponding well of the reaction plate to initiate the reaction; • 6) After the reaction plate was incubated at room temperature for 30 min, the reaction was terminated by adding reaction stopping solution. The reaction plate was incubated at room temperature for another 60 minutes;
(§5) Inhibition rates were calculated with Excel; and IC50 for each compound was calculated with Graphpad prism.

PDE4B1 = target: T2, PDE4B1 (Homo sapiens, UniProt Q07343); test: PDE4 inhibitory activity assay (FAM-cAMP enzymatic reaction), PDE4B1
T2 construct: purchased BPS 60041
T2 sequence (Q07343 whole entry): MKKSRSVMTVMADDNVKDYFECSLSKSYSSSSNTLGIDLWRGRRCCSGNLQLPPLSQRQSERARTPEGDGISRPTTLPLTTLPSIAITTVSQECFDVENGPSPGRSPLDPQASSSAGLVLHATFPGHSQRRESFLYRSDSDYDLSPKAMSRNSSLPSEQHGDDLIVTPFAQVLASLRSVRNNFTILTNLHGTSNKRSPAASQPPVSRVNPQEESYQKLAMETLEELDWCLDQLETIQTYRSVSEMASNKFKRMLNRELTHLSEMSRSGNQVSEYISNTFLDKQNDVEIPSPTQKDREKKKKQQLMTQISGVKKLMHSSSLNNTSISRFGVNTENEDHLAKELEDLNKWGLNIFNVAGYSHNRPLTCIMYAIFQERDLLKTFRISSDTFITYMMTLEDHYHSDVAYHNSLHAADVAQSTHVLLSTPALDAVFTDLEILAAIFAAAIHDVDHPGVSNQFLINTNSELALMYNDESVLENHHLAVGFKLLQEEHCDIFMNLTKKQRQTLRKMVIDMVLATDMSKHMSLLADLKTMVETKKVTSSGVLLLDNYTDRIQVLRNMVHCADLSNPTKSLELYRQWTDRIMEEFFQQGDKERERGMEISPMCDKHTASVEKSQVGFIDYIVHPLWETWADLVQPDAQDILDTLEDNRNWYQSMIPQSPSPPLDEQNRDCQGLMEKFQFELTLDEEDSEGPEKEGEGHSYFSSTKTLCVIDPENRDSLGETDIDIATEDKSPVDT
Method: as §1, §2, §3, §4, §5

PDE4D2 = PDE4D2 (Homo sapiens, UniProt Q08499); test: PDE4 inhibitory activity assay (FAM-cAMP enzymatic reaction), PDE4D2
Sequence of PDE4D2 (Q08499 303-809): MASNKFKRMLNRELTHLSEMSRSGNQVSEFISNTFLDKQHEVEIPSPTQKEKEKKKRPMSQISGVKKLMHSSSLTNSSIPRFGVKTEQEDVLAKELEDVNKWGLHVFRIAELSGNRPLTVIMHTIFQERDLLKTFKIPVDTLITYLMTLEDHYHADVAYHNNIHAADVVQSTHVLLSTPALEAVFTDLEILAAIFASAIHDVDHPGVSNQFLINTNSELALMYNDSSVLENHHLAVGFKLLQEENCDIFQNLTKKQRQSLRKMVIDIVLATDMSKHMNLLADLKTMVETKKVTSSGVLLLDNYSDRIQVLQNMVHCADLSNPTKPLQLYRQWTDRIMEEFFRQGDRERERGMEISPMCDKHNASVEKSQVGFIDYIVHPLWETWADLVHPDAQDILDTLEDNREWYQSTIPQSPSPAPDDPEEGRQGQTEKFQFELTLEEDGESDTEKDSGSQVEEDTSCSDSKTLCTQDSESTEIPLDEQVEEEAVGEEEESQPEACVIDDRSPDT
Method: as §1, §2, §3, §4, §5

T1 sequence (P27815 1-647 isoform P27815-4): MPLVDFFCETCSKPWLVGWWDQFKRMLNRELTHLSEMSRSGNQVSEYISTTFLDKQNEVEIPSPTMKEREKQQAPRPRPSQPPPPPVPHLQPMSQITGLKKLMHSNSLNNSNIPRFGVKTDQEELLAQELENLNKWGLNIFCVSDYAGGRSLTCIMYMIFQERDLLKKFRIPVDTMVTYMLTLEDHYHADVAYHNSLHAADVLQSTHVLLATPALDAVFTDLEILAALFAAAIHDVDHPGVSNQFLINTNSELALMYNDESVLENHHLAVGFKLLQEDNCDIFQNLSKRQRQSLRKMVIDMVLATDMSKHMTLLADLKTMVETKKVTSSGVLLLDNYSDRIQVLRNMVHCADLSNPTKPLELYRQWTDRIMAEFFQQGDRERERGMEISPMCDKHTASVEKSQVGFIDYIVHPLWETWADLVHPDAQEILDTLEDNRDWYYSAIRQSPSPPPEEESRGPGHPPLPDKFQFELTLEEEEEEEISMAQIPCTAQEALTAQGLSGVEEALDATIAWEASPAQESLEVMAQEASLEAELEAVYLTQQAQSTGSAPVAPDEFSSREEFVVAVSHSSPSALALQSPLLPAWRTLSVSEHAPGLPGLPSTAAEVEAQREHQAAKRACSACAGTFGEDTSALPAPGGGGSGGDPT

Row | Structure (SMILES) | PDE4 A1 inhibitory effect at 20 nM (PDE4A1A) | PDE4 B1 inhibitory effect at 20 nM (PDE4B1) | PDE4 D2 inhibitory effect at 20 nM (PDE4D2)
1 | CCOc1nc([C@@H](CS(C)(=O)=O)n2c(=O)[nH]c3c(C)c(-c4cc(F)ccc4OC)cnc32)ccc1OC [Ex. 44, (S)-6-(5-fluoro-2-methoxyphenyl)-3-(1-(6-ethoxy-5-methoxypyridin-2-yl)-2-(methylsulfonyl)ethyl)-7-methyl-1H-imidazo[4,5-b]pyridin-2(3H)-one] | + | + | +
2 | CCOc1nc([C@@H](CS(C)(=O)=O)n2c(=O)[nH]c3c(C)c(-c4ccc(F)cc4OC)cnc32)ccc1OC [Ex. 45, (S)-6-(4-fluoro-2-methoxyphenyl)-3-(1-(6-ethoxy-5-methoxypyridin-2-yl)-2-(methylsulfonyl)ethyl)-7-methyl-1H-imidazo[4,5-b]pyridin-2(3H)-one] | + | + | +
3 | CCOc1nc([C@@H](CS(C)(=O)=O)n2c(=O)[nH]c3c(C)c(-c4c(F)cccc4OC)cnc32)ccc1OC [Ex. 46, (S)-6-(6-fluoro-2-methoxyphenyl)-3-(1-(6-ethoxy-5-methoxypyridin-2-yl)-2-(methylsulfonyl)ethyl)-7-methyl-1H-imidazo[4,5-b]pyridin-2(3H)-one] | + | + | +
4 | CCOc1nc([C@H](CS(C)(=O)=O)n2c(=O)n(CC)c3c(C)c(-c4ccccc4)cnc32)ccc1OC [Ex. 47, (R)-3-(1-(6-ethoxy-5-methoxypyridin-2-yl)-2-(methylsulfonyl)ethyl)-1-ethyl-7-methyl-6-phenyl-1H-imidazo[4,5-b]pyridin-2(3H)-one] | − | − | −
5 | CCOc1nc([C@@H](CS(C)(=O)=O)n2c(=O)n(CC)c3c(C)c(-c4ccc(F)cc4)cnc32)ccc1OC [Ex. 48, (S)-3-(1-(6-ethoxy-5-methoxypyridin-2-yl)-2-(methylsulfonyl)ethyl)-1-ethyl-6-(4-fluorophenyl)-7-methyl-1H-imidazo[4,5-b]pyridin-2(3H)-one] | + | + | +
6 | CCOc1nc([C@H](CS(C)(=O)=O)n2c(=O)n(CC)c3c(C)c(-c4ccc(F)cc4)cnc32)ccc1OC [Ex. 49, (R)-3-(1-(6-ethoxy-5-methoxypyridin-2-yl)-2-(methylsulfonyl)ethyl)-1-ethyl-6-(4-fluorophenyl)-7-methyl-1H-imidazo[4,5-b]pyridin-2(3H)-one] | − | − | −
7 | CCOc1nc([C@@H](CS(C)(=O)=O)n2c(=O)n(CC)c3c(C)c(-c4ccccc4C)cnc32)ccc1OC [Ex. 50, (S)-3-(1-(6-ethoxy-5-methoxypyridin-2-yl)-2-(methylsulfonyl)ethyl)-1-ethyl-7-methyl-6-(o-methylphenyl)-1H-imidazo[4,5-b]pyridin-2(3H)-one] | + | + | +
8 | CCOc1nc([C@@H](CS(C)(=O)=O)n2c(=O)n(CC(F)(F)F)c3c(C)c(-c4ccccc4F)cnc32)ccc1OC [Ex. 51, (S)-3-(1-(6-ethoxy-5-methoxypyridin-2-yl)-2-(methylsulfonyl)ethyl)-6-(2-fluorophenyl)-7-methyl-1-(2,2,2-trifluoroethyl)-1H-imidazo[4,5-b]pyridin-2(3H)-one] | + | + | +
9 | CCOc1nc([C@H](CS(C)(=O)=O)n2c(=O)n(CC(F)(F)F)c3c(C)c(-c4ccccc4F)cnc32)ccc1OC [Ex. 52, (R)-3-(1-(6-ethoxy-5-methoxypyridin-2-yl)-2-(methylsulfonyl)ethyl)-6-(2-fluorophenyl)-7-methyl-1-(2,2,2-trifluoroethyl)-1H-imidazo[4,5-b]pyridin-2(3H)-one] | − | − | −
10 | CCOc1nc([C@@H](CS(C)(=O)=O)n2c(=O)n(CC(F)(F)F)c3c(C)c(-c4ccccc4)cnc32)ccc1OC [Ex. 53, (S)-3-(1-(6-ethoxy-5-methoxypyridin-2-yl)-2-(methylsulfonyl)ethyl)-7-methyl-6-phenyl-1-(2,2,2-trifluoroethyl)-1H-imidazo[4,5-b]pyridin-2(3H)-one] | + | + | +
11 | CCOc1nc([C@H](CS(C)(=O)=O)n2c(=O)n(CC(F)(F)F)c3c(C)c(-c4ccccc4)cnc32)ccc1OC [Ex. 54, (R)-3-(1-(6-ethoxy-5-methoxypyridin-2-yl)-2-(methylsulfonyl)ethyl)-7-methyl-6-phenyl-1-(2,2,2-trifluoroethyl)-1H-imidazo[4,5-b]pyridin-2(3H)-one] | − | − | −
12 | CCOc1nc([C@@H](CS(C)(=O)=O)n2c(=O)n(CC(F)(F)F)c3c(C)c(-c4ccccc4C)cnc32)ccc1OC [Ex. 55, (S)-3-(1-(6-ethoxy-5-methoxypyridin-2-yl)-2-(methylsulfonyl)ethyl)-7-methyl-6-(o-methylphenyl)-1-(2,2,2-trifluoroethyl)-1H-imidazo[4,5-b]pyridin-2(3H)-one] | + | + | +
13 | CCOc1nc([C@@H](CS(C)(=O)=O)n2c(=O)n(CC(F)F)c3c(C)c(-c4ccccc4F)cnc32)ccc1OC [Ex. 56, (S)-1-(2,2-difluoroethyl)-3-(1-(6-ethoxy-5-methoxypyridin-2-yl)-2-(methylsulfonyl)ethyl)-6-(2-fluorophenyl)-7-methyl-1H-imidazo[4,5-b]pyridin-2(3H)-one] | + | + | +
14 | CCOc1nc([C@@H](CS(C)(=O)=O)n2c(=O)n(CC(F)F)c3c(C)c(-c4ccccc4)cnc32)ccc1OC [Ex. 57, (S)-1-(2,2-difluoroethyl)-3-(1-(6-ethoxy-5-methoxypyridin-2-yl)-2-(methylsulfonyl)ethyl)-7-methyl-6-phenyl-1H-imidazo[4,5-b]pyridin-2(3H)-one] | + | + | +
15 | CCOc1nc([C@@H](CS(C)(=O)=O)n2c(=O)n(CC(F)F)c3c(C)c(-c4ccc(F)cc4)cnc32)ccc1OC [Ex. 58, (S)-1-(2,2-difluoroethyl)-3-(1-(6-ethoxy-5-methoxypyridin-2-yl)-2-(methylsulfonyl)ethyl)-6-(4-fluorophenyl)-7-methyl-1H-imidazo[4,5-b]pyridin-2(3H)-one] | + | + | +
16 | CCOc1nc([C@@H](CS(C)(=O)=O)n2c(=O)n(CC(F)F)c3c(C)c(-c4ccccc4C)cnc32)ccc1OC [Ex. 59, (S)-1-(2,2-difluoroethyl)-3-(1-(6-ethoxy-5-methoxypyridin-2-yl)-2-(methylsulfonyl)ethyl)-7-methyl-6-(o-methylphenyl)-1H-imidazo[4,5-b]pyridin-2(3H)-one] | + | + | +
17 | CCOc1nc([C@@H](CS(C)(=O)=O)n2c(=O)[nH]c3c(C)c(-c4ccccc4F)cnc32)ccc1OC(F)F [Ex. 60, (S)-3-(1-(5-(difluoromethoxy)-6-ethoxypyridin-2-yl)-2-(methylsulfonyl)ethyl)-6-(2-fluorophenyl)-7-methyl-1H-imidazo[4,5-b]pyridin-2(3H)-one] | + | + | +
18 | CCOc1nc([C@@H](CS(C)(=O)=O)n2c(=O)[nH]c3c(C)c(-c4ccccc4)cnc32)ccc1OC(F)F [Ex. 61, (S)-3-(1-(5-(difluoromethoxy)-6-ethoxypyridin-2-yl)-2-(methylsulfonyl)ethyl)-7-methyl-6-phenyl-1H-imidazo[4,5-b]pyridin-2(3H)-one] | + | + | +
19 | CCOc1nc([C@H](CS(C)(=O)=O)n2c(=O)[nH]c3c(C)c(-c4ccccc4)cnc32)ccc1OC(F)F [Ex. 62, (R)-3-(1-(5-(difluoromethoxy)-6-ethoxypyridin-2-yl)-2-(methylsulfonyl)ethyl)-7-methyl-6-phenyl-1H-imidazo[4,5-b]pyridin-2(3H)-one] | − | − | −
20 | CCOc1nc([C@@H](CS(C)(=O)=O)n2c(=O)[nH]c3c(C)c(-c4ccc(F)cc4)cnc32)ccc1OC(F)F [Ex. 63, (S)-3-(1-(5-(difluoromethoxy)-6-ethoxypyridin-2-yl)-2-(methylsulfonyl)ethyl)-6-(4-fluorophenyl)-7-methyl-1H-imidazo[4,5-b]pyridin-2(3H)-one] | + | + | +
